Measurements as given in patent US12723063B2, “GIPR-agonist compounds” (Eli Lilly and Company, priority 2019, dated 2026).
*1 amine or outer side, *2 acyl side, *3 side chain or, on linkers, in order; H or OH if unused. Where a SMILES comes first, the peptide text is derived from it. Side-chain parts run from the residue outwards. [ ]: non-standard residue; d: D form. The star is where a group is joined. C20 diacid = O=C(O)CCCCCCCCCCCCCCCCCCC(=O)*; αMePhe(2-F) = C[C@](N)(Cc1ccccc1F)C(=O)O; γGlu = O=C(O)[C@H](CCC(=O)[*:2])N[*:1]; 4Pal = N[C@@H](Cc1ccncc1)C(=O)O; αMeL = CC(C)C[C@](C)(N)C(=O)O; Iva = CC[C@](C)(N)C(=O)O; AEEA = NCCOCCOCC(=O)O; Aib = CC(C)(N)C(=O)O

Key:
human GIPR = target: T1, human GIPR (Homo sapiens, UniProt P48546); assay: [125I]-GIP binding, SPA with WGA beads, 0.1% bacitracin; details: geometric mean, read-out: hGIPR Ki
T1 construct: expressed in transfected cells; crude membranes
T1 sequence (P48546 22-466): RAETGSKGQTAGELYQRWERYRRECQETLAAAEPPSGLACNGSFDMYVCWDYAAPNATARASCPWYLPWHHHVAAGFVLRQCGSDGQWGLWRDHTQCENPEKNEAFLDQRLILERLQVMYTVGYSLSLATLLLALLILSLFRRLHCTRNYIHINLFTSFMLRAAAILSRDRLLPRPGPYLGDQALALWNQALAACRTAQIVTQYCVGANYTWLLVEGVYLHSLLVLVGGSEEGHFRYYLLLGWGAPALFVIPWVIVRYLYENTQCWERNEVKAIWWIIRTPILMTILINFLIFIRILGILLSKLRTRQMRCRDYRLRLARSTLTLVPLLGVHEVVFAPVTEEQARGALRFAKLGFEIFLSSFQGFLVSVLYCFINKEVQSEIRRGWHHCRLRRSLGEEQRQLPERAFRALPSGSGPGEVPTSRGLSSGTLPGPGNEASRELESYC
Summary of the method: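 Ki values are geometric means (SEM, n independent days), derived from four-parameter nonlinear regression of IC50. Membranes came from hGIPR-expressing CHO cells.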

human GLP-1R = target: T2, human GLP-1R (Homo sapiens, UniProt P43220); assay: [125I]-GLP-1 binding, SPA with WGA beads, 0.1% bacitracin; details: geometric mean, read-out: hGLP1R Ki
T2 construct: expressed in transfected cells; crude membranes
Summary of the method: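 Binding buffer was 25 mM HEPES pH 7.4 with 2.5 mM CaCl2, 1 mM MgCl2, 0.1% (w/v) bacitracin, 0.003% Tween-20 and EDTA-free protease inhibitors. Four-parameter regression gave IC50, converted to Ki (geometric mean, SEM, n independent days).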

T2 sequence (P43220 24-463): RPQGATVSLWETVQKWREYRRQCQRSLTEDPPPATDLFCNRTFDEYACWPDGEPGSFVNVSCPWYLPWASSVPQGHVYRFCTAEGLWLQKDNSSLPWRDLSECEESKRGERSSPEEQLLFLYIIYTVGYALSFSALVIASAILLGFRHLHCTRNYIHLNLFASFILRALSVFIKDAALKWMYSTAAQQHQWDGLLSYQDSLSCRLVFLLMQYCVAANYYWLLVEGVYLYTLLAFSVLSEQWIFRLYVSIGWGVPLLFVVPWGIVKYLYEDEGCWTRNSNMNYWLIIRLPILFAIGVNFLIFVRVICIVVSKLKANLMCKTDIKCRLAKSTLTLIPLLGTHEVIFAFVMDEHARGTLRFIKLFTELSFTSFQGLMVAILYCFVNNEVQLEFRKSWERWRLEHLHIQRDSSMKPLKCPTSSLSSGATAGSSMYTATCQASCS

Compound	Ki (human GIPR) [nM]	Ki (human GLP-1R) [nM]
CC[C@H](C)[C@H](NC(=O)[C@H](Cc1ccccc1)NC(=O)[C@@H](NC(=O)CNC(=O)[C@H](CCC(=O)O)NC(=O)C(C)(C)NC(=O)[C@@H](N)Cc1ccc(O)cc1)[C@@H](C)O)C(=O)N[C@@H](CO)C(=O)N[C@@H](CC(=O)O)C(=O)N[C@@H](Cc1ccc(O)cc1)C(=O)N[C@@H](CO)C(=O)N[C@H](C(=O)N[C@@](C)(CC(C)C)C(=O)N[C@@H](CC(C)C)C(=O)N[C@@H](CC(=O)O)C(=O)N[C@@H](CCCCN)C(=O)N[C@@H](CCCCNC(=O)COCCOCCNC(=O)COCCOCCNC(=O)CC[C@H](NC(=O)CCCCCCCCCCCCCCCCCCC(=O)O)C(=O)O)C(=O)N[C@@H](Cc1c[nH]cn1)C(=O)N[C@@H](CCC(N)=O)C(=O)NC(C)(C)C(=O)N[C@@H](CC(=O)O)C(=O)N[C@@H](Cc1ccccc1)C(=O)N[C@H](C(=O)N[C@@H](CCC(=O)O)C(=O)N[C@@H](Cc1c[nH]c2ccccc12)C(=O)N[C@@H](CC(C)C)C(=O)N[C@@H](CC(C)C)C(=O)N[C@@H](C)C(=O)NCC(=O)NCC(=O)N1CCC[C@H]1C(=O)N[C@@H](CO)C(=O)N[C@@H](CO)C(=O)NCC(=O)N[C@@H](C)C(=O)N1CCC[C@H]1C(=O)N1CCC[C@H]1C(=O)N1CCC[C@H]1C(=O)N[C@@H](CO)C(N)=O)C(C)C)[C@@H](C)CC [Example 54] (H-Y[Aib]EGTFISDYSI[αMeL]LDKK([AEEA-AEEA-γGlu-C20 diacid])HQ[Aib]DFVEWLLAGGPSSGAPPPS-NH2)	0.0326	49.9
CC[C@H](C)[C@H](NC(=O)[C@H](Cc1ccccc1)NC(=O)[C@@H](NC(=O)CNC(=O)[C@H](CCC(=O)O)NC(=O)C(C)(C)NC(=O)[C@@H](N)Cc1ccc(O)cc1)[C@@H](C)O)C(=O)N[C@@H](CO)C(=O)N[C@@H](CC(=O)O)C(=O)N[C@@H](Cc1ccc(O)cc1)C(=O)N[C@@H](CO)C(=O)N[C@H](C(=O)N[C@@](C)(CC(C)C)C(=O)N[C@@H](CC(C)C)C(=O)N[C@@H](CC(=O)O)C(=O)N[C@@H](CCCCN)C(=O)N[C@@H](CCCCNC(=O)COCCOCCNC(=O)COCCOCCNC(=O)CC[C@H](NC(=O)CCCCCCCCCCCCCCCCCCC(=O)O)C(=O)O)C(=O)N[C@@H](Cc1c[nH]cn1)C(=O)N[C@@H](CCC(N)=O)C(=O)NC(C)(C)C(=O)N[C@@H](CCC(=O)O)C(=O)N[C@@H](Cc1ccccc1)C(=O)N[C@H](C(=O)N[C@@H](CCC(=O)O)C(=O)N[C@@H](Cc1ccncc1)C(=O)N[C@@H](CC(C)C)C(=O)N[C@@H](CC(C)C)C(=O)N[C@@H](C)C(=O)NCC(=O)NCC(=O)N1CCC[C@H]1C(=O)N[C@@H](CO)C(=O)N[C@@H](CO)C(=O)NCC(=O)N[C@@H](C)C(=O)N1CCC[C@H]1C(=O)N1CCC[C@H]1C(=O)N1CCC[C@H]1C(=O)N[C@@H](CO)C(N)=O)C(C)C)[C@@H](C)CC [Example 52]	0.0372	128
CC[C@H](C)[C@H](NC(=O)[C@H](CO)NC(=O)[C@H](Cc1ccc(O)cc1)NC(=O)[C@H](CC(=O)O)NC(=O)[C@H](CO)NC(=O)[C@@H](NC(=O)[C@](C)(Cc1ccccc1F)NC(=O)[C@@H](NC(=O)CNC(=O)[C@H](CCC(=O)O)NC(=O)C(C)(C)NC(=O)[C@@H](N)Cc1ccc(O)cc1)[C@@H](C)O)[C@@H](C)CC)C(=O)N[C@@H](C)C(=O)N[C@@H](CC(C)C)C(=O)N[C@@H](CC(=O)O)C(=O)N[C@@H](CCCCN)C(=O)N[C@@H](CCCCNC(=O)COCCOCCNC(=O)COCCOCCNC(=O)CC[C@H](NC(=O)CCCCCCCCCCCCCCCCCCC(=O)O)C(=O)O)C(=O)N[C@@H](Cc1c[nH]cn1)C(=O)N[C@@H](CCC(N)=O)C(=O)NC(C)(C)C(=O)N[C@@H](CC(=O)O)C(=O)N[C@@H](Cc1ccccc1)C(=O)N[C@H](C(=O)N[C@@H](CCC(=O)O)C(=O)N[C@@H](Cc1c[nH]c2ccccc12)C(=O)N[C@@H](CC(C)C)C(=O)N[C@@H](CC(C)C)C(=O)N[C@@H](CCC(=O)O)C(=O)N[C@H](C(=O)NCC(=O)N1CCC[C@H]1C(=O)N[C@@H](CO)C(=O)N[C@@H](CO)C(=O)NCC(=O)N[C@@H](C)C(=O)N1CCC[C@H]1C(=O)N1CCC[C@H]1C(=O)N1CCC[C@H]1C(=O)N[C@@H](CO)C(N)=O)[C@@H](C)O)C(C)C [Example 40] (H-Y[Aib]EGT[αMePhe(2-F)]ISDYSIALDKK([AEEA-AEEA-γGlu-C20 diacid])HQ[Aib]DFVEWLLETGPSSGAPPPS-NH2)	0.0594	302
CC[C@H](C)[C@H](NC(=O)[C@H](CO)NC(=O)[C@H](Cc1ccc(O)cc1)NC(=O)[C@H](CC(=O)O)NC(=O)[C@H](CO)NC(=O)[C@@H](NC(=O)[C@](C)(Cc1ccccc1F)NC(=O)[C@@H](NC(=O)CNC(=O)[C@H](CCC(=O)O)NC(=O)C(C)(C)NC(=O)[C@@H](N)Cc1ccc(O)cc1)[C@@H](C)O)[C@@H](C)CC)C(=O)N[C@@H](C)C(=O)N[C@@H](CC(C)C)C(=O)N[C@@H](CC(=O)O)C(=O)N[C@@H](CCCCN)C(=O)N[C@@H](CCCCNC(=O)COCCOCCNC(=O)COCCOCCNC(=O)CC[C@H](NC(=O)CCCCCCCCCCCCCCCCCCC(=O)O)C(=O)O)C(=O)N[C@@H](Cc1c[nH]cn1)C(=O)N[C@@H](CCC(N)=O)C(=O)NC(C)(C)C(=O)N[C@@H](CCC(=O)O)C(=O)N[C@@H](Cc1ccccc1)C(=O)N[C@H](C(=O)N[C@@H](CC(N)=O)C(=O)N[C@@H](Cc1ccc(O)cc1)C(=O)N[C@@H](CC(C)C)C(=O)N[C@@H](CC(C)C)C(=O)N[C@@H](C)C(=O)N[C@H](C(=O)NCC(=O)N1CCC[C@H]1C(=O)N[C@@H](CO)C(=O)N[C@@H](CO)C(=O)NCC(=O)N[C@@H](C)C(=O)N1CCC[C@H]1C(=O)N1CCC[C@H]1C(=O)N1CCC[C@H]1C(=O)N[C@@H](CO)C(N)=O)[C@@H](C)O)C(C)C [Example 34] (H-Y[Aib]EGT[αMePhe(2-F)]ISDYSIALDKK([AEEA-AEEA-γGlu-C20 diacid])HQ[Aib]EFVNYLLATGPSSGAPPPS-NH2)	0.034	201
CC[C@H](C)[C@H](NC(=O)[C@H](CO)NC(=O)[C@H](Cc1ccc(O)cc1)NC(=O)[C@H](CC(=O)O)NC(=O)[C@H](CO)NC(=O)[C@@H](NC(=O)[C@](C)(CC)NC(=O)[C@@H](NC(=O)CNC(=O)[C@H](CCC(=O)O)NC(=O)C(C)(C)NC(=O)[C@@H](N)Cc1ccc(O)cc1)[C@@H](C)O)[C@@H](C)CC)C(=O)N[C@@](C)(CC(C)C)C(=O)N[C@@H](CC(C)C)C(=O)N[C@@H](CC(=O)O)C(=O)N[C@@H](CCCCN)C(=O)N[C@@H](CCCCNC(=O)COCCOCCNC(=O)COCCOCCNC(=O)CC[C@H](NC(=O)CCCCCCCCCCCCCCCCCCC(=O)O)C(=O)O)C(=O)N[C@@H](Cc1c[nH]cn1)C(=O)N[C@@H](CCC(N)=O)C(=O)NC(C)(C)C(=O)N[C@@H](CC(=O)O)C(=O)N[C@@H](Cc1ccccc1)C(=O)N[C@H](C(=O)N[C@@H](CCC(=O)O)C(=O)N[C@@H](Cc1ccncc1)C(=O)N[C@@H](CC(C)C)C(=O)N[C@@H](CC(C)C)C(=O)N[C@@H](C)C(=O)NCC(=O)NCC(=O)N1CCC[C@H]1C(=O)N[C@@H](CO)C(=O)N[C@@H](CO)C(=O)NCC(=O)N[C@@H](C)C(=O)N1CCC[C@H]1C(=O)N1CCC[C@H]1C(=O)N1CCC[C@H]1C(=O)N[C@@H](CO)C(N)=O)C(C)C [Example 55] (H-Y[Aib]EGT[Iva]ISDYSI[αMeL]LDKK([AEEA-AEEA-γGlu-C20 diacid])HQ[Aib]DFVE[4Pal]LLAGGPSSGAPPPS-NH2)	0.0331	262
CC[C@H](C)[C@H](NC(=O)[C@H](Cc1ccccc1)NC(=O)[C@@H](NC(=O)CNC(=O)[C@H](CCC(=O)O)NC(=O)C(C)(C)NC(=O)[C@@H](N)Cc1ccc(O)cc1)[C@@H](C)O)C(=O)N[C@@H](CO)C(=O)N[C@@H](CC(=O)O)C(=O)N[C@@H](Cc1ccc(O)cc1)C(=O)N[C@@H](CO)C(=O)N[C@H](C(=O)N[C@@](C)(CC(C)C)C(=O)N[C@@H](CC(C)C)C(=O)N[C@@H](CC(=O)O)C(=O)N[C@@H](CCCCN)C(=O)N[C@@H](CCCCNC(=O)COCCOCCNC(=O)COCCOCCNC(=O)CC[C@H](NC(=O)CCCCCCCCCCCCCCCCC(=O)O)C(=O)O)C(=O)N[C@@H](Cc1c[nH]cn1)C(=O)N[C@@H](CCC(N)=O)C(=O)NC(C)(C)C(=O)N[C@@H](CC(=O)O)C(=O)N[C@@H](Cc1ccccc1)C(=O)N[C@H](C(=O)N[C@@H](CCC(=O)O)C(=O)N[C@@H](Cc1ccncc1)C(=O)N[C@@H](CC(C)C)C(=O)N[C@@H](CC(C)C)C(=O)N[C@@H](C)C(=O)NCC(=O)NCC(=O)N1CCC[C@H]1C(=O)N[C@@H](CO)C(=O)N[C@@H](CO)C(=O)NCC(=O)N[C@@H](C)C(=O)N1CCC[C@H]1C(=O)N1CCC[C@H]1C(=O)N1CCC[C@H]1C(=O)N[C@@H](CO)C(N)=O)C(C)C)[C@@H](C)CC [Example 49]	0.0512	596
